For 24 compounds, IC50 results are on record in patent US20100029657A1, “Bridged, Bicyclic Heterocyclic or Spiro Bicyclic Heterocyclic Derivatives of Pyrazolo[1, 5-A]Pyrimidines, Methods for Preparation and Uses Thereof” (Wyeth, priority 2008, published 2010).

This experiment addresses T1, Flag/GST-tagged recombinant human B-Raf (Homo sapiens, UniProt P15056).
T1 construct: Flag; GST; made in house; host or cells: Sf9 insect cells (B-Raf); E. coli (MEK1-GST)
The experiment in a line: B-Raf kinase assay (phosphorylation of GST-MEK1, phospho-MEK1 antibody/Europium detection). The settings on record: B-Raf IC50 Data for compounds of Formula A; read-out: Mean IC50. Type of experiment: biochemical. Here is the method: B-Raf1 Kinase Assay Procedure: B-Raf-1 is used to phosphorylate GST-MEK1.
• 1. Assay Dilution Buffer (ADB): 20 mM MOPS, pH 7.2, 25 mM β-glycerol phosphate, 5 mM EGTA, 1 mM sodium orthovanadate, 1 mM dithiothreitol, 0.01% Triton X-100. • 2. Magnesium/ATP Cocktail: ADB solution (minus Triton X-100) plus 200 μM cold ATP and 40 mM magnesium chloride. • 4. Active Kinase: Active B-Raf: Used at 0.2 nM per assay point. • 5. […] TBST—Tris (50 mM, pH 7.5), NaCl (150 mM), Tween-20 (0.05%) • 7. Anti-GST Ab (GE) • 8. Anti pMEK Ab (Upstate) • 9. Anti-rabbit Ab/Europium conjugate (Wallac).
B-Raf Assay Procedure: • 1. Added 25 μL of ADB containing B-Raf and Mek per assay (i.e. per well of a 96 well plate) • 2. Added 25 μL of 0.2 mM ATP and 40 mM magnesium chloride in Magnesuium/ATP Cocktail. • 3. Incubated for 45 minutes at RT with occasional shaking. • 4. Transferred this mixture to an anti-GST Ab coated 96 well plate (Nunc Immunosorb plates coated o/n with a-GST. Plate freshly washed 3×with TBS-T before use. • 5. Incubated o/n at […] in cold room. • 6. Washed 3× with TBST, ed Anti-Phospho MEK1 (1:1000, dilution depended upon lot) • 7. Incubated for 60 minutes at RT in a shaking incubator • 8. Washed 3× with TBST, add Anti-rabbit Ab/Europium conjugate (Wallac) (1:500, dilution depended upon lot) • 9. Incubated for 60 minutes at RT on a platform shaker. • 10. Washed plate 3× with TBS-T • 11. Added 100 μL of Wallac Delfia Enhancement Solution and agitated for 10 minutes. • 12. Read plates in Wallac Victor model Plate Reader. • 13.
The % inhibition was determined for each compound concentration.

T1 sequence (P15056 whole entry): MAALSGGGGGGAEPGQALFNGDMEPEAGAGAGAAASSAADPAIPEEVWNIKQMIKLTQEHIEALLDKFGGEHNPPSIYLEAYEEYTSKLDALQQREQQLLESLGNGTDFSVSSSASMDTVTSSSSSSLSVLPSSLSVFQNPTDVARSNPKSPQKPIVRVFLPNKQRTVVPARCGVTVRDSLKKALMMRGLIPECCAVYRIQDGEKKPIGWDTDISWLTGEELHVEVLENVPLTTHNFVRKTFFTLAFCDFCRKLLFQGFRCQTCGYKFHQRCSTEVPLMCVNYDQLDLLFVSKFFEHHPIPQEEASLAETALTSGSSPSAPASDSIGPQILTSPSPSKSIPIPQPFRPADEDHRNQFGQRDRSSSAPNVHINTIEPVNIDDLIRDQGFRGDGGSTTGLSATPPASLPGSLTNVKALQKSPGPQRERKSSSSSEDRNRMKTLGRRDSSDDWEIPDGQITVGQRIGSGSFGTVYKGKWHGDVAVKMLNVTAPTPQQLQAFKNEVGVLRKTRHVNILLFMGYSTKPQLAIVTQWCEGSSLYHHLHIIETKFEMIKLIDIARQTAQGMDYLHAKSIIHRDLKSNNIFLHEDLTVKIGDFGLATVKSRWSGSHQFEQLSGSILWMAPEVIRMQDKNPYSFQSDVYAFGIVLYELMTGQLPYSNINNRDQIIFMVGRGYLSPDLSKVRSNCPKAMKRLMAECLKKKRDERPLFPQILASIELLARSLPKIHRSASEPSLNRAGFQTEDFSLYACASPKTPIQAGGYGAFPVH

The IC50 is the concentration that gives 50% inhibition. With `Cc1cc(N2C[C@@H]3C[C@H]2CN3C)ccc1-c1ccnc2c(-c3cccc4[nH]ncc34)c(-c3ccncc3)nn12` [Example 45, 3-(1H-Indazol-4-yl)-7-(2-methyl-4-((1S,4S)-5-methyl-2,5-diazabicyclo[2.2.1]heptan-2-yl)phenyl)-2-(pyridin-4-yl)pyrazolo[1,5-a]pyrimidine], the IC50 was < 0.3 nM.
For `Fc1ccc(-c2ccnc3c(-c4cccc5[nH]ncc45)c(-c4ccncc4)nn23)c(N2C[C@@H]3C[C@H]2CN3)c1` [Example 46, 7-(2-((1S,4S)-2,5-Diazabicyclo[2.2.1]heptan-2-yl)-4-fluorophenyl)-3-(1H-indazol-4-yl)-2-(pyridin-4-yl)pyrazolo[1,5-a]pyrimidine] the value was 3.2 nM.
For `CN1C[C@@H]2C[C@H]1CN2c1cc(F)ccc1-c1ccnc2c(-c3cccc4[nH]ncc34)c(-c3ccncc3)nn12` [Example 47, 7-(4-Fluoro-2-((1S,4S)-5-methyl-2,5-diazabicyclo[2.2.1]heptan-2-yl)phenyl)-3-(1H-indazol-4-yl)-2-(pyridin-4-yl)pyrazolo[1,5-a]pyrimidine], the IC50 is 0.8 nM.
For `COc1cc(-c2c(-c3ccncc3)nn3c(-c4ccc(F)cc4N4C[C@@H]5C[C@H]4CN5C(=O)OC(C)(C)C)ccnc23)ccc1Cl` [Example 48, (1S,4S)-tert-Butyl 5-(2-(3-(4-chloro-3-methoxyphenyl)-2-(pyridin-4-yl)pyrazolo[1,5-a]pyrimidin-7-yl)-5-fluorophenyl)-2,5-diazabicyclo[2.2.1]-heptane-2-carboxylate] the value was > 1000 nM; for `COc1cc(-c2c(-c3ccncc3)nn3c(-c4ccc(F)cc4N4C[C@@H]5C[C@H]4CN5)ccnc23)ccc1Cl` [Example 49, 7-(2-((1S,4S)-2,5-Diazabicyclo[2.2.1]heptan-2-yl)-4-fluorophenyl)-3-(4-chloro-3-methoxyphenyl)-2-(pyridin-4-yl)pyrazolo[1,5-a]pyrimidine], 255 nM; for `COc1cc(-c2c(-c3ccncc3)nn3c(-c4ccc(F)cc4N4C[C@@H]5C[C@H]4CN5C)ccnc23)ccc1Cl` [Example 50, 3-(4-Chloro-3-methoxyphenyl)-7-(4-fluoro-2-((1S,4S)-5-methyl-2,5-diazabicyclo[2.2.1]heptan-2-yl)phenyl)-2-(pyridin-4-yl)pyrazolo[1,5-a]pyrimidine], > 1000 nM.
For the compound `c1cc(-c2c(-c3ccncc3)nn3c(-c4ccc(N5C[C@@H]6C[C@H]5CN6)cc4)ccnc23)c2cn[nH]c2c1` [Example 51, 7-(4-((1S,4S)-2,5-Diazabicyclo[2.2.1]heptan-2-yl)phenyl)-3-(1H-indazol-4-yl)-(pyridin-4-yl)pyrazolo[1,5-a]pyrimidine], the IC50 was determined as 0.8 nM.
The same measure for `Fc1cc(N2C[C@@H]3C[C@H]2CN3)ccc1-c1ccnc2c(-c3cccc4[nH]ncc34)c(-c3ccncc3)nn12` [Example 52, 7-(4-((1S,4S)-2,5-Diazabicyclo[2.2.1]heptan-2-yl)-2-fluorophenyl)-3-(1H-indazol-4-yl)-2-(pyridin-4-yl)pyrazolo[1,5-a]pyrimidine]: < 0.3 nM; for `CN1C[C@@H]2C[C@H]1CN2c1ccc(-c2ccnc3c(-c4cccc5[nH]ncc45)c(-c4ccncc4)nn23)c(F)c1` [Example 53, 7-(2-Fluoro-4-((1S,4S)-5-methyl-2,5-diazabicyclo[2.2.1]heptan-2-yl)phenyl)-3-(1H-indazol-4-yl)-2-(pyridin-4-yl)pyrazolo[1,5-a]pyrimidine]: < 0.3 nM; for `CN1C[C@@H]2C[C@H]1CN2c1ccc(-c2ccnc3c(-c4ccc(F)c(O)c4)c(-c4ccncc4)nn23)cc1` [Example 54, 2-fluoro-5-(7-(4-((1S,4S)-5-methyl-2,5-diazabicyclo[2.2.1]heptan-2-yl)phenyl)-2-(pyridin-4-yl)pyrazolo[1,5-a]pyrimidin-3-yl)phenol]: 150 nM.
For the compound `Cc1cc(N2C[C@@H]3C[C@H]2CN3C)ccc1-c1ccnc2c(-c3ccc(F)c(O)c3)c(-c3ccncc3)nn12` [Example 56, 2-Fluoro-5-(7-(2-methyl-4-((1S,4S)-5-methyl-2,5-diazabicyclo[2.2.1]heptan-2-yl)phenyl)-2-(pyridin-4-yl)pyrazolo[1,5-a]pyrimidin-3-yl)phenol], the IC50 is < 0.3 nM.
Regarding `Cc1cc(N2C[C@@H]3C[C@H]2CN3C)ccc1-c1ccnc2c(-c3cccc(O)c3)c(-c3ccncc3)nn12` [Example 58, 3-(7-(2-Methyl-4-((1S,4S)-5-methyl-2,5-diazabicyclo[2.2.1]heptan-2-yl)phenyl)-2-(pyridin-4-yl)pyrazolo[1,5-a]pyrimidin-3-yl)phenol], the IC50 was < 0.3 nM.
With `Oc1cccc(-c2c(-c3ccncc3)nn3c(-c4ccc(N5C[C@@H]6C[C@H]5CN6)cc4Cl)ccnc23)c1` [Example 59, 3-(7-(4-((1S,4S)-2,5-Diazabicyclo[2.2.1]heptan-2-yl)-2-chlorophenyl)-2-(pyridin-4-yl)pyrazolo[1,5-a]pyrimidin-3-yl)phenol], the IC50 is < 0.3 nM.
As to `CN1C[C@@H]2C[C@H]1CN2c1ccc(-c2ccnc3c(-c4cccc(O)c4)c(-c4ccncc4)nn23)c(Cl)c1` [Example 60, 3-(7-(2-Chloro-4-((1S,4S)-5-methyl-2,5-diazabicyclo[2.2.1]heptan-2-yl)phenyl)-2-(pyridin-4-yl)pyrazolo[1,5-a]pyrimidin-3-yl)phenol], the IC50 is < 0.3 nM.
`Clc1cc(N2C[C@@H]3C[C@H]2CN3)ccc1-c1ccnc2c(-c3cccc4[nH]ncc34)c(-c3ccncc3)nn12` [Example 61, 7-(4-((1S,4S)-2,5-Diazabicyclo[2.2.1]heptan-2-yl)-2-chlorophenyl)-3-(1H-indazol-4-yl)-2-(pyridin-4-yl)pyrazolo[1,5-a]pyrimidine]: the IC50 is < 0.3 nM.
`CN1C[C@@H]2C[C@H]1CN2c1ccc(-c2ccnc3c(-c4cccc5[nH]ncc45)c(-c4ccncc4)nn23)c(Cl)c1` [Example 62, 7-(2-Chloro-4-((1S,4S)-5-methyl-2,5-diazabicyclo[2.2.1]heptan-2-yl)phenyl)-3-(1H-indazol-4-yl)-2-(pyridin-4-yl)pyrazolo[1,5-a]pyrimidine]: the IC50 was < 0.3 nM.
For `CCN1C2CCC1CC(c1ccnc3c(-c4ccc(F)c(O)c4)c(-c4ccncc4)nn13)C2` (stereo not drawn) [Example 64, 5-(7-(8-Ethyl-8-azabicyclo[3.2.1]octan-3-yl)-2-(pyridin-4-yl)pyrazolo[1,5-a]pyrimidin-3-yl)-2-fluorophenol] the value was 3 nM.
For `CCOC(=O)N1C2CCC1CC(c1ccnc3c(-c4cccc(F)c4F)c(-c4ccncc4)nn13)C2` (stereo not drawn) [Example 65, Ethyl 3-(3-(2,3-difluorophenyl)-2-(pyridin-4-yl)pyrazolo[1,5-a]pyrimidin-7-yl)-8-azabicyclo[3.2.1]octane-8-carboxylate] the value was 302 nM; for `CCOC(=O)N1C2CCC1CC(c1ccnc3c(-c4cccc(NS(C)(=O)=O)c4)c(-c4ccncc4)nn13)C2` (stereo not drawn) [Example 66, Ethyl 3-(3-(3-(methylsulfonamido)phenyl)-2-(pyridin-4-yl)pyrazolo[1,5-a]pyrimidin-7-yl)-8-azabicyclo[3.2.1]octane-8-carboxylate], 329 nM; for `CCN1C2CCC1CC(c1ccnc3c(-c4ccc(NC(=O)OC)cc4)c(-c4ccncc4)nn13)C2` (stereo not drawn) [Example 67, Methyl 4-(7-(8-ethyl-8-azabicyclo[3.2.1]octan-3-yl)-2-(pyridin-4-yl)pyrazolo[1,5-a]pyrimidin-3-yl)phenylcarbamate], > 1000 nM.
The same measure for `CCN1C2CCC1CC(c1ccnc3c(-c4ccc(C#N)c(O)c4)c(-c4ccncc4)nn13)C2` (stereo not drawn) [Example 68, 4-(7-(8-Ethyl-8-azabicyclo[3.2.1]octan-3-yl)-2-(pyridin-4-yl)pyrazolo[1,5-a]pyrimidin-3-yl)-2-hydroxybenzonitrile]: 58 nM.
In the case of `CCN1C2CCC1CC(c1ccnc3c(-c4ccc(NC=O)c(O)c4)c(-c4ccncc4)nn13)C2` (stereo not drawn) [Example 72a, N-(4-(7-(8-Ethyl-8-azabicyclo[3.2.1]octan-3-yl)-2-(pyridin-4-yl)pyrazolo[1,5-a]pyrimidin-3-yl)-2-hydroxyphenyl)formamide], the IC50 is 566 nM.
`CCN1C2CCC1CC(c1ccnc3c(-c4ccc(NC=O)c(OC)c4)c(-c4ccncc4)nn13)C2` (stereo not drawn) [Example 72b, N-(4-(7-(8-ethyl-8-azabicyclo[3.2.1]octan-3-yl)-2-(pyridin-4-yl)pyrazolo[1,5-a]pyrimidin-3-yl)-2-methoxyphenyl)formamide]: the IC50 was 417 nM.
For `CCOC(=O)N1C2CCC1CC(c1ccnc3c(-c4cccc5[nH]ncc45)c(-c4ccncc4)nn13)C2` (stereo not drawn) [Example 73, Ethyl 3-[3-(1H-indazol-4-yl)-2-pyridin-4-ylpyrazolo[1,5-a]pyrimidin-7-yl]-8-azabicyclo[3.2.1]octane-8-carboxylate], the IC50 was 2 nM.
